Test results as given in patent publication US20090018106A1, “INTRAVENOUS FORMULATIONS OF PYRIDOXAL 5'- PHOSPHATE AND METHOD OF PREPARATION” (Medicure International Inc., priority 2005, published 2009).
Like-named read-outs stand apart in the source and are kept apart here.

Experiments:
Type in all cases: in vivo, human
[1] = Once daily intravenous 10 mg/kg P5P for four days, urinary excretion and renal clearance (Example Four); conditions: P5P 10 mg/kg iv once daily, 4 days, PA, mean; for CL renal: human, urine and plasma, iv, 10 mg/kg, read-out: CLR, renal clearance (converted)
Protocol: Data sets analyzed—Six (6) healthy, adult non-smokers were administered intravenously a single daily dose of 10 mg/kb of P5P for four consecutive days and completed the study. In accordance with the study protocol, data from all subjects who completed the study were used for pharmacokinetic and statistical analysis.
Analytical Methods—Plasma and urine samples were used for analysis. P5P, PAL, and PA levels were determined by HPLC/FLD. The quantitation level was 5 ng/mL for plasma and 100 ng/mL for urine. The sample analysis calibration curve range was 5 ng/mL to 5000 ng/mL for plasma and 100 ng/mL to 50,000 ng/mL for urine.
Total and Renal Clearance—Total body clearance was estimated for P5P and was calculated as Dose/AUC0-inf.

[2] = Single intravenous dose escalation of P5P, plasma pharmacokinetics (Examples Two and Three); conditions: for Cmax / MRT / Tmax / half-life / AUC(0-inf) / AUC(0-t): both sexes, human; for Cmax / MRT / Tmax / half-life: plasma, iv; for AUC(0-t): read-out: AUC(0-t)
Protocol: A phase one clinical trial was conducted to compare the pharmacokinetics of intravenously administered P5P and orally administered P5P. The trial was a single dose escalation study.
For intravenous administration, P5P was administered by bolus injection under fasting conditions. The following doses of P5P were studied: 1, 5, 10, and 20 mg/kg. 6 subjects were assigned to each dosage group.
P5P, pyridoxal, and 4-pyridoxic acid were evaluated in both plasma and urine over a 24 hour interval following either intravenous or oral dosing. The results are set out below in Tables 2 and 3.
Methodology—This was a single-blind, single-dose escalation, non-randomized, 4-phase, non-crossover study designed to evaluate the safety and […] subjects under fasting conditions and to estimate pharmacokinetic parameters of P5P.
Subjects were assigned to one of the four groups (six subjects per group) under fasting conditions.
Concentrations of pyridoxal-5′-phosphate (P5P) were measured from the plasma samples collected over a 24-bour interval after dosing in each phase.
Pharmacokinetic parameters: AUCt, AUCinf, Cmax, Tmax, Kel, Thalf, Vd, CL, MRT and F were estimated based on pyridoxal-5′-phosphate (P5P) plasma levels for each subject that was in the final data set.
The test product used was a P5P Intravenous Injectable Solution, 50 mg/ml, which was prepared in accordance with the methods of Example 1 (CanAm BioResearch Inc. Canada); Lot No.: LP1459: Manufacturing Date: 12/03. A single 1, 5, 10 or 20 mg/kg dose was given by intravenous injection. The duration of treatment was a single dose.
Secondary Endpoint—Pharmacokinetic (PK) Parameters—Plasma concentrations of pyridoxal-5′-phosphate (P5P) were measured by a validated analytical method. Based on these concentration levels, AUCt, AUCinf, Cmax, Tmax, Kel, Thalf, Vd, CL, MRT and F were estimated.
Statistical Methods—Descriptive statistics were calculated by treatments for the estimated pharmacokinetic parameters.

[3] = Cumulative urinary excretion after single intravenous dose of P5P (Example Three); conditions: Percent (CV %)
Protocol: P5P, pyridoxal, and 4-pyridoxic acid were evaluated in both plasma and urine over a 24 hour interval following either intravenous or oral dosing. The results are set out below in Tables 2 and 3. The urinary excretion of the unchanged P5P is negligible. Less than 0.5% of the administered dose was found as P5P in the urine (Table 10). Similarly, very little of the dose was excreted in urine as PAL, between approximately 2 to 3% of the total dose (Table 10). PA represented the largest amounts found in urine. Over a 24-hour interval, between 30% and 52% of the given dose was excreted in urine as 4-pyridoxic acid.

[4] = Group 1, P5P 1 mg/kg single iv, plasma PA, mean
[5] = Group 2, P5P 5 mg/kg single iv, plasma PA, mean
[6] = Group 3, P5P 10 mg/kg single iv, plasma PA, mean
[7] = Group 4, P5P 20 mg/kg single iv, plasma PA, mean
[8] = 1 mg/kg, Group 1, P5P 1 mg/kg single iv, plasma PA, mean
[9] = 5 mg/kg, Group 2, P5P 5 mg/kg single iv, plasma PA, mean
[10] = 10 mg/kg, Group 3, P5P 10 mg/kg single iv, plasma PA, mean
[11] = 20 mg/kg, Group 4, P5P 20 mg/kg single iv, plasma PA, mean
[12] = ln(pK Parameter) = b0 + b1 * ln (Dose)
[13] = ln(pK Parameter) = b0 + b1 * ln (Dose), single iv 1-20 mg/kg

Cc1ncc(CO)c(C(=O)O)c1O [PA, 4-pyridoxic acid]
Ae0-t, total amount excreted in urine ([1]; Day 1): 172950596 ng | Ae0-t, total amount excreted in urine ([1]; Day 4): 225885311 ng | CL renal ([1]; Day 1): 144 mL/min | CL renal ([1]; Day 4): 179 mL/min | Kel [2, 4]: 0.311 h⁻¹ | Kel [2, 5]: 0.332 h⁻¹ | Kel [2, 6]: 0.268 h⁻¹ | Kel [2, 7]: 0.216 h⁻¹ | Cmax [2, 8]: 419 ng/mL | MRT [2, 8]: 4.5 h | Tmax [2, 8]: 1.04 h | half-life ([2]; 1 mg/kg, Group 1, P5P 1 mg/kg single iv, plasma PA, mean, read-out: T½ (converted)): 2.82 h | Cmax [2, 9]: 2450 ng/mL | MRT [2, 9]: 3.48 h | Tmax [2, 9]: 0.71 h | half-life ([2]; 5 mg/kg, Group 2, P5P 5 mg/kg single iv, plasma PA, mean, read-out: T½ (converted)): 2.12 h | Cmax [2, 10]: 5360 ng/mL | MRT [2, 10]: 3.85 h | Tmax [2, 10]: 0.74 h | half-life ([2]; 10 mg/kg, Group 3, P5P 10 mg/kg single iv, plasma PA, mean, read-out: T½ (converted)): 2.73 h | Cmax [2, 11]: 16100 ng/mL | MRT [2, 11]: 4.13 h | Tmax [2, 11]: 0.73 h | half-life ([2]; 20 mg/kg, Group 4, P5P 20 mg/kg single iv, plasma PA, mean, read-out: T½ (converted)): 3.48 h | half-life ([2]; over all single iv doses of P5P (1-20 mg/kg), read-out: apparent elimination half-life (converted)): 2 to 3.5 h | AUC(0-inf) [2, 4]: 1990 ng·h/mL | AUC(0-t) [2, 4]: 1500 ng·h/mL | AUC(0-inf) [2, 5]: 10700 ng·h/mL | AUC(0-t) [2, 5]: 10500 ng·h/mL | AUC(0-inf) [2, 6]: 23000 ng·h/mL | AUC(0-t) [2, 6]: 22700 ng·h/mL | AUC(0-inf) [2, 7]: 53000 ng·h/mL | AUC(0-t) [2, 7]: 51900 ng·h/mL | Significance of b1, lnAUCi [2, 12]: <0.0001 | Significance of b1, lnCmax [2, 12]: <0.0001 | Significance of b1, lnMRT [2, 12]: 0.7995 | Significance of b1, lnThalf [2, 12]: 0.2604 | Coef. for Dose (b1), lnAUCi [2, 13]: 1.10 | Coef. for Dose (b1), lnCmax [2, 13]: 1.20 | Coef. for Dose (b1), lnMRT [2, 13]: −0.01 | Coef. for Dose (b1), lnThalf [2, 13]: 0.08 | Intercept (b0), lnAUCi [2, 13]: 0.62 | Intercept (b0), lnCmax [2, 13]: −0.98 | Intercept (b0), lnMRT [2, 13]: 1.37 | Intercept (b0), lnThalf [2, 13]: 0.82 | dose relationship of plasma AUCinf and Cmax ([2]; single iv P5P 1-20 mg/kg): increase more than expected based on dose | Cumulative Urinary Excretion as Percent of the Dose ([3]; Group 1, dose of P5P 1 mg/1 kg, single iv): 52.25 (28) Percent | Cumulative Urinary Excretion as Percent of the Dose ([3]; Group 2, P5P 5 mg/kg single iv): 47.18 (32) Percent | Cumulative Urinary Excretion as Percent of the Dose ([3]; Group 3, P5P 10 mg/kg single iv): 29.78 (32) Percent | Cumulative Urinary Excretion as Percent of the Dose ([3]; Group 4, dose of P5P, single iv): 40.55 (54) Percent
